What all share (format): functional, organism-based
The test system of test [1] is Cowpox virus. In words: Antiviral activity against Cowpox virus infected in Vero cells measured after 4 days by colorimetric assay. The following applies: 96 h.
The test system of test [2] is Vaccinia virus. The experiment in a line: Antiviral activity against Vaccinia virus IHD-J infected in BSC40 cells assessed as reduction in plaque formation measured after 72 hrs by crystal violet staining based analysis. The following applies: Orthopoxvirus vaccinia, BSC-40, 72 h.
For test [3], the system named is Vaccinia virus. The experiment in a line: Antiviral activity against Vaccinia virus Copenhagen infected in African green monkey Vero cells. The settings on record: Orthopoxvirus vaccinia.
For test [4], the system named is Cowpox virus. The experiment in a line: Antiviral activity against Cowpox virus Grishak infected in African green monkey Vero cells.
The subject of test [5] is Ectromelia virus. The experiment in a line: Antiviral activity against ectromelia virus K-1 infected in Vero cells. The following applies: K-1, Vero.
Test [6] has as its system Vaccinia virus. In words: Antiviral activity against Vaccinia virus infected in African green monkey Vero cells incubated for 24 hrs. The settings on record: Orthopoxvirus vaccinia.
In test [7] the test system is Vaccinia virus. The experiment in a line: Antiviral activity against wild type Vaccinia virus infected in human HFF cells assessed as reduction in viral replication measured after 5 days by microscopic analysis. The following applies: Orthopoxvirus vaccinia, 120 h.
The subject of test [8] is Vaccinia virus. The experiment in a line: Antiviral activity against Vaccinia virus Copenhagen infected in human HFF cells assessed as assessed as reduction in virus-induced cytopathic effect incubated for 7 days by microscopic analysis. The following applies: Orthopoxvirus vaccinia, 168 h.
Test [9] relates to Vaccinia virus. The experiment in a line: Antiviral activity against Vaccinia virus WR-GFP infected in BSC40 cells assessed as reduction in plaque formation measured after 72 hrs by crystal violet staining based analysis. The settings on record: Orthopoxvirus vaccinia, BSC-40, 72 h.
Test [10] relates to Vaccinia virus. The experiment in a line: Antiviral activity against Vaccinia virus Copenhagen infected in HFF cells measured after 3 days by colorimetric assay. The settings on record: Orthopoxvirus vaccinia, 72 h.
The subject of test [11] is Cowpox virus. In words: Antiviral activity against Cowpox virus Brighton infected in Vero cells measured after 4 days by colorimetric assay. The settings on record: 96 h.
For test [12], the system named is Vaccinia virus. In words: Antiviral activity against wild type Vaccinia virus infected in African monkey Vero cells measured after 5 days by MTT assay. The settings on record: Orthopoxvirus vaccinia, 120 h.
Test [13] relates to Vaccinia virus. In words: Antiviral activity against Vaccinia virus Lister infected in human HEL cells assessed as virus-induced cytopathic effect measured after 5 days by microscopic analysis. The settings on record: Orthopoxvirus vaccinia, 120 h.
The subject of another test is Camelpox virus. The experiment in a line: Antiviral activity against Camelpox virus infected in human HEL cells assessed as reduction in virus-induced cytopathic effect measured after 5 days by microscopic analysis. The settings on record: 120 h.
For test [14], the system named is Monkeypox virus. The experiment in a line: Antiviral activity against Monkeypox virus Zr-599 infected in African green monkey Vero E6 cells assessed as reduction in plaque formation measured after 72 hrs by microscopic analysis. The following applies: Zr-599, Vero C1008, 72 h.
Test [15] has as its system Vaccinia virus. The experiment in a line: Antiviral activity against Vaccinia virus Copenhagen infected in human HFF cells assessed as reduction in viral replication measured after 3 days. The settings on record: Orthopoxvirus vaccinia, 72 h.
Test [16] relates to Vaccinia virus. In words: Antiviral activity against Cowpox virus Brighton infected in human HFF cells assessed as reduction in viral replication measured after 3 days. The settings on record: Orthopoxvirus vaccinia, 72 h.
Another test relates to Variola virus. The experiment in a line: Antiviral activity against Variola virus 7124 infected in African green monkey BSC-1 cells. The following applies: Variola virus, 7124, BSC-1.
Test [17] deals with Vaccinia virus. The experiment in a line: Antiviral activity against Vaccinia virus infected in human HFF cells. The settings on record: Orthopoxvirus vaccinia.
The next test has as its system Human alphaherpesvirus 2. The experiment in a line: Antiviral activity against Herpes simplex virus 2.
Test [18] concerns Vaccinia virus. In words: Antiviral activity against Vaccinia virus infected in African green monkey Vero cells assessed as reduction virus induced cytopathic effect incubated for 24 hrs by MTT assay. The settings on record: Orthopoxvirus vaccinia.
Test [19] relates to Vaccinia virus. In words: Antiviral activity against Vaccinia virus IHD infected in African green monkey Vero cells assessed as reduction in plaque formation measured after 7 days. The settings on record: Orthopoxvirus vaccinia, 168 h.
The subject of test [20] is Vaccinia virus. In words: Antiviral activity against wild type Vaccinia virus IHD infected in monkey Vero cells assessed as reduction in plaque formation measured after 7 days. The following applies: Orthopoxvirus vaccinia, 168 h.
For test [21], the system named is Ectromelia virus. The experiment in a line: Antiviral activity against ectromelia virus K-1 infected in Vero cells measured after 4 days by colorimetric assay. The following applies: K-1, Vero, 96 h.
For test [22], the system named is Monkeypox virus. In words: Antiviral activity against Monkeypox virus V79-1-005 infected in Vero cells measured after 4 days by colorimetric assay. The following applies: V79-1-005, Vero, 96 h.
In test [23] the test system is Vaccinia virus. In words: Antiviral activity against Vaccinia virus infected in Vero cells measured after 4 days by colorimetric assay. The settings on record: Orthopoxvirus vaccinia, 96 h.

Values after ≈ are worked out from the molar mass of the structure shown.

With `Nc1cc(OC[C@H](CO)OCP(=O)(O)O)nc(N)n1`, in the test with Cowpox virus [1], the midpoint of the response, the EC50, lay at 46.2 µM.

For the compound `Cc1ccc(C2Nc3ccccc3C(=O)N2c2ccccc2)s1` (centres undefined), the 50% effective concentration (EC50) in the test with Vaccinia virus [2] came to 2.2 µM.

With `CC1(C)[C@@H]2CC[C@@]1(C)C(NC(=O)c1ccc([N+](=O)[O-])cc1)C2` (some centres undefined), the EC50 is 0.03 µM in the test on Vaccinia virus [3], 1.4 µM in the test with Cowpox virus [4] and 0.41 µM with Ectromelia virus [5].

For `Cc1nn(C)c(C)c1CCOc1c(-c2ccc3c(c2)c(CN(C)C)nn3C)ccc(F)c1F`, the EC50 with Vaccinia virus [2] is 0.13 µM.

Compound `CCNC(=O)OCC12CC3CC(CC(C3)C1)C2` yielded a concentration giving a half-maximal response (EC50) with Vaccinia virus [6] of 14.8 µM.

As for `CC(=O)Oc1ccccc1C(=O)Nc1ncc([N+](=O)[O-])s1` [NITAZOXANIDE], in the test on Vaccinia virus [7], the concentration for a half-maximal effect (EC50) was found to be 1.95 µM.

In the case of `Oc1ccc(NCc2ccccc2OCc2ccccc2)cc1`, the concentration giving a half-maximal response (EC50) with Vaccinia virus [8] was found to be 7.1 µM.

With `O=C1CN(C(=O)c2nccs2)C(c2cccc(Cl)c2)c2cc(Br)ccc2N1` (centres undefined), in the test on Vaccinia virus [2], the concentration giving a half-maximal response (EC50) amounted to 0.5 µM. Besides, the 50% inhibitory concentration (IC50) in the test with Vaccinia virus [9] was 1.3 µM.

Take `Cc1cn([C@H]2C[C@H](O)[C@]3(CO)C[C@H]23)c(=O)[nH]c1=O` [(NORTH)-METHANOCARBATHYMIDINE]: the concentration for half-maximal inhibition (IC50) in the test on Vaccinia virus [10] turned out to be 0.55 µM; in the test on Cowpox virus [11] it was 1.5 µM.

Regarding `Cc1cn([C@@]2(C)C[C@H](O)[C@@H](CO)S2)c(=O)[nH]c1=O`, the concentration giving a half-maximal response (EC50) with Vaccinia virus [10] was determined as 0.48 µM; with Vaccinia virus [12], 0.8 µM; with Cowpox virus [11] it was 0.48 µM; in the test with Vaccinia virus [13], 0.41 µM; in the test with Camelpox virus, 0.79 µM.

`O=C1C(O)=C([C@H]2CC[C@H](c3ccc(Cl)cc3)CC2)C(=O)c2ccccc21` [ATOVAQUONE]: the EC50 with Monkeypox virus [14] was found to be 0.52 µM.

On to `CN1C(=O)/C(=N\NC(N)=S)c2ccccc21` [METHISAZONE], for which the EC50 in the test with Vaccinia virus [15] was determined as 3.3 µM; in the test with Vaccinia virus [16], 14 µM.

Regarding `O=C1c2ccccc2-c2onc3c2C1C(NC1CCCCC1)C=C3NCCO` (centres undefined), in the test on Vaccinia virus [8], the EC50 was found to be 8.4 µM.

`Nc1ncnc2c1ncn2COC(CO)CO` registered an EC50 with Cowpox virus [1] of 3.5 µM.

`O[C@H]1[C@H]2c3cc4c(cc3CN3CCC(=C[C@@H]1O)[C@H]23)OCO4` [LYCORINE] gave an EC50 with Variola virus of 5 µM.

On to `Cc1ccnc(NC(c2ccccc2F)c2ccc3cccnc3c2O)c1` (centres undefined), for which the EC50 in the test with Vaccinia virus [8] worked out at 2.9 µM.

`O=c1[nH]c(=O)n([C@H]2C[C@H](O)[C@@H](CO)S2)cc1I`: the half-maximal effective concentration (EC50) was 0.5 µM with Vaccinia virus [10] and 0.05 µM with Vaccinia virus [12].

As for `Oc1ccc(Cl)cc1Sc1cc(Cl)ccc1O` [FENTICLOR], the IC50 in the test on Vaccinia virus [17] worked out at 5.7 µM; in the test on Human alphaherpesvirus 2 it was 2.4 µM.

As for `Nc1ccn(C[C@@H](CO)OCP(=O)(O)O)c(=O)n1` [CIDOFOVIR ANHYDROUS], the half-maximal effective concentration (EC50) with Vaccinia virus [18] was 46.2 µM; with Cowpox virus [1], 44.7 µM.

Consider `Nc1ccn(C[C@@H]2COP(=O)(O)CO2)c(=O)n1`, for which the concentration giving a half-maximal response (EC50) is 50.6 µM with Vaccinia virus [18] and 48.3 µM in the test with Cowpox virus [1].

For `C=C(CC)C(=O)c1ccc(OCC(=O)O)c(Cl)c1Cl` [ETHACRYNIC ACID], the 50% effective concentration (EC50) in the test on Vaccinia virus [19] was 20 µM; in the test with Vaccinia virus [20], 40 µM.

In the case of `O=C(NNC(=O)C1C2C=CC(C3CC23)C1C(=O)O)c1ccc(C(F)(F)F)cc1` (centres undefined), the figures for the EC50 in the test with Ectromelia virus [21], with Monkeypox virus [22] and in the test with Vaccinia virus [23] were 0.011 µg/mL (≈ 0.0279 µM), 0.013 µg/mL (≈ 0.033 µM) and 0.001 µg/mL (≈ 0.00254 µM), respectively.

In the case of `Fc1ccc(Nc2c(-c3ccccn3)nc3ccc(Cl)cn23)cc1`, the concentration for a half-maximal effect (EC50) in the test on Vaccinia virus [8] stood at 6.5 µM.

For the origin of these results see ChEMBL document CHEMBL5346934 (J Med Chem, 2023).
